Assays:
EBP = experiment: Analysis of mouse brain sterol levels in vivo; set-up: species or system C57-BL6 mice; settings: mice, 10 mg/kg once daily for 3 days, versus vehicle
Protocol: Ten to twelve week old male C57BL/6 mice were injected with Cis-N-cyclohexyl-N-ethyl-3-(3-chloro-4-cyclohexylphenyl)prop-2-enylamine dissolved in sterile saline daily for three days. Mice were anaesthetized with isoflurane and perfused with phosphate buffered saline to remove blood from the brain. Brains were collected and flash frozen using liquid nitrogen. The samples were pulverized and 50-100 milligrams of tissue were collected for further processing. A modified Folch protocol was used for extraction of sterols. Briefly, samples were resuspended in a 2:1 chloroform/methanol mixture and homogenized. Cell debris was removed by centrifugation at 4000 g for 10 min. The solution was dried under air and resuspended in hexane with a cholesterol-D7 standard and dried again. Lipids were derivatized with 70 al of bis(trimethylsilyl)trifluoroacetamide; 2 μls were injected and analyzed by GC/MS as described above.
Cis-N-cyclohexyl-N-ethyl-3-(3-chloro-4-cyclohexylphenyl)prop-2-enylamine was dissolved in a vehicle solution containing 80/10/10 saline/DMSO/Kolliphor. C57-BL6 mice were injected at 10 mg/kg once daily for 3 days with either vehicle (DMSO) or Cis-N-cyclohexyl-N-ethyl-3-(3-chloro-4-cyclohexylphenyl)prop-2-enylamine (n=5). (5 mice/condition). After 3 days, mice were anesthetized with isoflurane and perfused with phosphate buffered saline to remove blood from the brain. […] Lipids were derivatized with 70 ul of bis(trimethylsilyl) trifluoroacetamide; Samples were analyzed in […] using electron impact ionization; ion fragment abundances were integrated. 2 ul was analyzed by gas chromatography/mass spectrometry using an Agilent 5973 Network Mass Selective Detector equipped with a 6890 gas chromatograph system and a HP-5MS capillary column ([…]). Samples were analyzed in full scan mode using electron impact ionization; ion fragment peaks were integrated to calculate sterol abundance, and quantitation was relative to cholesterol-d7. The following ion fragments were used to quantitate each metabolite: zymostenol (458), zymosterol (456), Desmosterol. […]

EpiSC-derived OPCs = experiment: Oligodendrocyte formation and myelin sheaths on electrospun microfibers; type: cell-based, mouse; settings: 100 nM, versus untreated OPCs; microscopic images
Protocol: A 12-well plate containing Mimetex aligned scaffold (microfiber plate, AMSBIO, AMS.TECL-006-1X, Electrospun poly-L-lactide Scaffold, […] fibre diameter cell crown inserts) was prepared as previously described. Briefly, inserts were sterilized with 70% ethanol and washed with PBS before being coated with polyornithine and laminin. After laminin coating, 100,000 cells/mL of EpiSC-derived OPCs were plated in differentiation medium. After 24 h the media was replaced with fresh media containing small molecule treatments. […] Plates were fixed with 4% PFA, permeabilized with 0.1% Triton X-100, and blocked with 10% donkey serum (v/v) in PBS for 60 min. Plates were stained for MBP (Abcam, ab7349; 1:100) and DAPI staining (Sigma; 5 μg/ml). After staining, the inserts were moved into new 12-well plate and covered with 2 mL of PBS before imaging in Operetta high content Imaging and analysis system. Plates were imaged on the Operetta High Content Imaging and Analysis system (PerkinElmer) and a set of 8 fields captured from each well resulting in an average of 45,000 cells being scored per well. Analysis (PerkinElmer Harmony and Columbus software) identified intact nuclei stained by DAPI and calculated the MBP signal intensity per cell per well. Microfiber insert tracking images were taken using a Leica DMi8 with a 20× Dry/NA 0.40 objective. […]

human EBP = molecular target: T1, human EBP (Homo sapiens, UniProt Q15125); experiment: Zymostenol level in human cortical spheroids (on-target EBP inhibition); type: cell-based; settings: 100 nM, versus DMSO
T1 construct: endogenous in cells; host or cells: human cortical spheroids derived from pluripotent stem cells
T1 sequence (Q15125 whole entry): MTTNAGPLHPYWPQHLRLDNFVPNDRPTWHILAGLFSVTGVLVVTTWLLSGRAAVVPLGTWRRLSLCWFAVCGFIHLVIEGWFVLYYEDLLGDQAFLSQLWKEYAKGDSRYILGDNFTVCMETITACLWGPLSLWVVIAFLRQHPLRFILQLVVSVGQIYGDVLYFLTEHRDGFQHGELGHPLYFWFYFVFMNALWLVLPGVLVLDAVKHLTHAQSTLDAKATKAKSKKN

CCN(C/C=C\c1ccc(C2CCCCC2)c(Cl)c1)C1CCCCC1 [Cis-N-cyclohexyl-N-ethyl-3-(3-chloro-4-cyclohexylphenyl)prop-2-enylamine]
brain levels of desmosterol (EBP): decreased | brain levels of zymostenol (EBP): increased | brain levels of zymosterol (EBP): increased | amount of myelin sheaths formed on electrospun poly-L-lactide scaffold microfibers (EpiSC-derived OPCs): significant increase in the amount of myelin sheaths | zymostenol in human cortical spheroid cells (FIG. 6) (human EBP): accumulation of EBP substrate zymostenol

Source: patent publication US10918610B2, “Compounds and methods of promoting myelination” (Case Western Reserve University, priority 2017, dated 2021)
